Each structure is given as a SMILES string. Where a name gives a salt, the structure may show the parent alone.

The first experiment deals with U87MG. As to the kind of experiment: cells. Further details: MTT viability assay on U87MG glioblastoma cells. Conditions: Homo sapiens, U-87 MG, 72 h. As for the experimental part: Glioblastoma cell culture routines, viability, and proliferation assays were performed as previously described. U87MG cells were maintained in complete MEM media supplemented with 10% FBS and 2 mM L-glutamine (Invitrogen, Paris, France). For cytotoxicity assays, cells were counted and plated in 96-well flat-bottom plates (50,000 cells/mL, 5000 cells per well). After 24 h, the cells were treated with increasing concentrations of the MTAs (0, 1, 5, 10, and 20–40 μM) in a vehicle solution, containing 0.05% DMSO. All concentrations were done in triplicates. The surviving cells were quantified after 72 h by the tetrazolium bromide MTT-assay, according to the manufacturer’s instructions. After cell lysis, the optical density was measured at 600 nm using a Multiskan MS Thermo plate reader (LabSystems, Waltham, MA, USA).
Consider `O[C@@H](c1cc(C(F)(F)F)nc2c(C(F)(F)F)cccc12)[C@H]1CCCCN1` (racemic) [MFQ, Mefloquine], for which the IC50 (in general, the concentration that inhibits the measured activity by half) was found to be 11.6 ± 1.2 µM.
As to `CCCSc1ccc2nc(NC(=O)OC)[nH]c2c1` [ABZ, Albendazole], the IC50 stood at 0.3 µM.
On the same count and under the same terms, the value for `C[C@@H](O[C@H]1OCCN(Cc2n[nH]c(=O)[nH]2)[C@H]1c1ccc(F)cc1)c1cc(C(F)(F)F)cc(C(F)(F)F)c1` [APT, Aprepitant] was 41.8 ± 31.8 µM; that for `C[C@H]1[C@H](OC(=O)CCC(=O)O)O[C@@H]2O[C@@]3(C)CC[C@H]4[C@H](C)CC[C@@H]1[C@@]24OO3` [ASN, Artesunate] was 24 ± 4.1 µM.
Take `CCc1oc2ccccc2c1C(=O)c1ccc(O)cc1` [BZ, Benzarone]: the IC50 was determined as 7.4 ± 0.7 µM.
As to `CCc1oc2ccccc2c1C(=O)c1cc(Br)c(O)c(Br)c1` [BZB, Benzbromarone], the IC50 was 62.1 ± 2.8 µM.
Same read-out and setting: the value for `Nc1cc(C(Cl)=C(Cl)Cl)c(S(N)(=O)=O)cc1S(N)(=O)=O` [CLS, Clorsulon] was 66.8 ± 13.3 µM; that for `CN(C)CC/C=C1/c2ccccc2Sc2ccc(Cl)cc21` [CPX, Chlorprothixene] was 27.6 ± 2.2 µM; that for `CN(C)CCCN1c2ccccc2Sc2ccc(Cl)cc21` [CPZ, Chlorpromazine] was 4.5 ± 0.5 µM.
The same measure, in the same setting: under `Oc1ccc(Cl)cc1Cc1cc(Cl)ccc1O` [DCP, Dichlorophen] stands 7.7 ± 1.2 µM; under `N#CC(c1ccc(Cl)cc1)c1c(Cl)cc(-n2ncc(=O)[nH]c2=O)cc1Cl` (stereo not drawn) [DCZ, Diclazuril], 48.9 ± 6 µM.
On the same count and under the same terms, under `C/C=C(/C(=C/C)c1ccc(O)cc1)c1ccc(O)cc1` [DE, Dienestrol] stands 23.6 ± 1 µM; under `CCN(CC)C(=S)SSC(=S)N(CC)CC` [DFM, Disulfiram], 12 ± 1.6 µM.
As for `O=c1c2ccccc2[se]n1-c1ccccc1` [EBS, Ebselen], the IC50 stood at 50.9 ± 32.7 µM.
On the same count and under the same terms, the value for `C[C@]12CC[C@@H]3c4ccc(O)cc4CC[C@H]3[C@@H]1CC[C@@H]2O` [ED, 17β-estradiol] was 30.7 ± 1.9 µM; that for `C#C[C@]1(O)CC[C@H]2[C@@H]3CCc4cc(O)ccc4[C@H]3CC[C@@]21C` [EES, Ethinylestradiol] was 15.7 ± 0.8 µM.
On to `O=C1Nc2ccc(Cl)cc2[C@@](C#CC2CC2)(C(F)(F)F)O1` [EFV, Efavirenz], for which the IC50 came out at 26.7 ± 2.6 µM.
The same measure, in the same setting: the value for `COC(=O)Nc1nc2ccc(Sc3ccccc3)cc2[nH]1` [FBZ, Fenbendazole] was 0.2 µM; that for `CCOC(=O)C1=C(C)NC(C)=C(C(=O)OC)C1c1cccc(Cl)c1Cl` (stereo not drawn) [FDP, Felodipine] was 13.7 ± 4 µM.
Still for that read-out and setting: under `COC(=O)Nc1nc2cc(C(=O)c3ccc(F)cc3)ccc2[nH]1` [FLU, Flubendazol] stands 0.6 µM; under `OCCN1CCN(CC/C=C2/c3ccccc3Sc3ccc(C(F)(F)F)cc32)CC1` [FPX, Flupentixol], 9.8 ± 1.8 µM.
The same measure, in the same setting: the value for `COC1=CC(=O)C[C@@H](C)[C@]12Oc1c(Cl)c(OC)cc(OC)c1C2=O` [GSF, Griseofulvin] was 24.4 ± 3.7 µM; that for `Oc1c(Cl)cc(Cl)c(Cl)c1Cc1c(O)c(Cl)cc(Cl)c1Cl` [HCP, Hexachlorophene] was 5.1 ± 0.7 µM.
In the case of `CC[C@H](c1ccc(O)cc1)[C@@H](CC)c1ccc(O)cc1` [Hexestrol], it took 20.2 ± 0.5 µM to reach half-maximal inhibition (IC50).
For the compound `Clc1ccc(C(Cn2ccnc2)OCc2c(Cl)cccc2Cl)c(Cl)c1` (stereo not drawn) [ICZ, Isoconazole], the IC50 is 33.1 ± 1.8 µM.
The same measure, in the same setting: under `C[C@]12C=CC(=O)C=C1CC[C@@H]1[C@@H]2CC[C@@]2(C)[C@H]1CC[C@]2(C)O` [MAS, Methandrostenolone] stands 58.7 ± 5.1 µM.
The same measure, in the same setting: the value for `CN(C)c1ccc2nc3ccc(=[N+](C)C)cc-3sc2c1` [MB, Methylene Blue] was 64.2 ± 9.9 µM.
Still for that read-out and setting: under `Clc1ccc(C(c2ccccc2Cl)C(Cl)Cl)cc1` (stereo not drawn) [MTT, Mitotane] stands 23.7 ± 2.7 µM.
The compound `COC(=O)Nc1nc2ccc(C(=O)c3cccs3)cc2[nH]1` [NCZ, Nocodazole] returned a half-inhibitory concentration (IC50) below 0.1 µM.
Still for that read-out and setting: under `N=C(N)Nc1ccc(C(=O)Oc2ccc3cc(C(=N)N)ccc3c2)cc1` [NFM, Nafamostat] stands 45.2 ± 6.1 µM.
Same read-out and setting: the value for `COC(=O)C1=C(C)NC(C)=C(C(=O)OCC(C)C)C1c1ccccc1[N+](=O)[O-]` (stereo not drawn) [NSD, Nisoldipine] was 25.3 ± 1.6 µM; that for `CCOC(=O)C1=C(C)NC(C)=C(C(=O)OC)C1c1cccc([N+](=O)[O-])c1` (stereo not drawn) [NTD, Nitrendipine] was 36.8 ± 3.3 µM; that for `CNCCC=C1c2ccccc2CCc2ccccc21` [NTP, Nortriptyline] was 20.5 ± 1.5 µM.
The same measure, in the same setting: the value for `CCCOc1ccc2[nH]c(NC(=O)OC)nc2c1` [OBZ, Oxibendazol] was 1.8 ± 0.3 µM; that for `COC(=O)Nc1nc2cc([S+]([O-])c3ccccc3)ccc2[nH]1` (stereo not drawn) [OFZ, Oxfendazole] was 17 ± 1 µM; that for `COc1ccc(C(=O)c2ccccc2)c(O)c1` [OXY, Oxybenzone] was 14.4 ± 7 µM.
As for `CC(C)c1cccc(C(C)C)c1O` [PPF, Propofol], the IC50 was determined as 26.6 ± 2.5 µM.
On the same count and under the same terms, under `OCCN1CCN(CCCN2c3ccccc3Sc3ccc(Cl)cc32)CC1` [PPZ, Perphenazine] stands 9.8 ± 0.4 µM; under `CNCCCC1c2ccccc2C=Cc2ccccc21` [PTP, Protriptyline hydrochloride], 17.7 ± 1.5 µM; under `c1ccc2c(c1)Nc1ccccc1S2` [PTZ, Phenothiazine], 60.2 ± 9.2 µM.
Still for that read-out and setting: under `O=C1NCCN1CCN1CCC(c2cn(-c3ccc(F)cc3)c3ccc(Cl)cc23)CC1` [STD, Sertindole] stands 6.7 ± 0.2 µM; under `Clc1ccc(C(Cn2ccnc2)OCc2csc3c(Cl)cccc23)c(Cl)c1` (stereo not drawn) [STZ, Sertaconazole nitrate], 10.7 ± 1.3 µM.
Take `Cc1cc2nc3ccc(N(C)C)cc3[s+]c2cc1N` [TBO, Tolonium (Toluidine Blue O)]: the IC50 came out at 6.3 ± 0.3 µM.
On the same count and under the same terms, the value for `Oc1cc(Cl)ccc1Oc1ccc(Cl)cc1Cl` [TCL, Triclosan] was 11.6 ± 0.5 µM.
The same measure, in the same setting: under `CSc1nc2cc(Cl)c(Oc3cccc(Cl)c3Cl)cc2[nH]1` [TCZ, Triclabendazole] stands 15.1 ± 0.9 µM; under `CCSc1ccc2c(c1)N(CCCN1CCN(C)CC1)c1ccccc1S2` [TEP, Thiethylperazine], 8.4 ± 0.2 µM.
As for `CN1CCN(CCCN2c3ccccc3Sc3ccc(C(F)(F)F)cc32)CC1` [TFP, Trifluoperazine], the midpoint of inhibition, the IC50, lay at 17.3 ± 3.2 µM.
Regarding `CN(C)CCCN1c2ccccc2Sc2ccc(C(F)(F)F)cc21` [TFZ, Triflupromazine], the IC50 worked out at 6.5 ± 0.6 µM.
Regarding `Cc1c(C)c2c(c(C)c1O)CCC(C)(COc1ccc(CC3SC(=O)NC3=O)cc1)O2` (stereo not drawn) [TGZ, Troglitazone], the IC50 is 39.5 ± 1 µM.
Same read-out and setting: the value for `CN(C)CCOc1ccc(/C(=C(/CCCl)c2ccccc2)c2ccccc2)cc1` [TMF, Toremifene] was 13.3 ± 1.9 µM.
Still for that read-out and setting: the value for `Clc1ccc(C(Cn2ccnc2)OCc2ccsc2Cl)c(Cl)c1` (stereo not drawn) [TOZ, Tioconazole] was 18.3 ± 1.4 µM; that for `CNCCC=C1c2ccccc2C=Cc2ccccc21` [nCBP, Norcyclobenzaprine] was 15.2 ± 0.8 µM.

For the next experiment, the target named is tubulin (Ovis aries, UniProt D0VWY9+D0VWZ0). As to the kind of experiment: nanoDSF screen, shift of polymerization temperature at about […]. It counts as biochemical.
Chain of tubulin (D0VWY9 entry or part of it): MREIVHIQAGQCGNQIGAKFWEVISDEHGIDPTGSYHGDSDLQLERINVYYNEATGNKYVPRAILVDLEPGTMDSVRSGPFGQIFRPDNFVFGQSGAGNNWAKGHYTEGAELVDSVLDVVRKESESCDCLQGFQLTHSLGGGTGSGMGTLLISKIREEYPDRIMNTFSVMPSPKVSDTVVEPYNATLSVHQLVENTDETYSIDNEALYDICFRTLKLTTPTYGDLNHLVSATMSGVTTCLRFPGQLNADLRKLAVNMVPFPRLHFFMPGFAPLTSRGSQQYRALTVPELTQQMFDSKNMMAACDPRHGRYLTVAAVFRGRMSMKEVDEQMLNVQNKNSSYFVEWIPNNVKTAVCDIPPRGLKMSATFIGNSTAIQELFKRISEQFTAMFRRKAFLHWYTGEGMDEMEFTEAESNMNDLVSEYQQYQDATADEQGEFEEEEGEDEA
Chain of tubulin (D0VWZ0 entry or part of it): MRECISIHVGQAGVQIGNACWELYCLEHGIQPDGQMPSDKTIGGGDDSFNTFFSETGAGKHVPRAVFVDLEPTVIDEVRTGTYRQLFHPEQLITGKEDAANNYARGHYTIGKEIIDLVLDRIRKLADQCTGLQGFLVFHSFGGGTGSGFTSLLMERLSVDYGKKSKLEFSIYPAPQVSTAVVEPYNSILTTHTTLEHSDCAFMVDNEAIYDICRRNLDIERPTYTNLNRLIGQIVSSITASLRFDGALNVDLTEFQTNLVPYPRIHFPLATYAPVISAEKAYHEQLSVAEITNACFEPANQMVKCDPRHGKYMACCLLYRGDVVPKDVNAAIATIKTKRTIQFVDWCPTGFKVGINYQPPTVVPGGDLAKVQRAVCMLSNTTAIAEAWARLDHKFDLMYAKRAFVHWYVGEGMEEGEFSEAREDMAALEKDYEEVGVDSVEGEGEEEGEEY
Details: not given
For orientation: Differential scanning fluorimetry follows unfolding on heating by fluorescence.
As for `CCCSc1ccc2nc(NC(=O)OC)[nH]c2c1` [ABZ, Albendazole], the ΔTm – broadly, the change in melting temperature against a reference sample – at 50 µM came out at 6.4 °C.
Still for that read-out and setting: under `COC(=O)Nc1nc2ccc(C(=O)c3cccs3)cc2[nH]1` [NCZ, Nocodazole] stands 6 °C.

For the origin of these results see publication PMC12406199, “NanoDSF Screening for Anti-tubulin Agents Uncovers New Structure–Activity Insights” (Journal of Medicinal Chemistry, 2025).
